Measurements published in patent US20250230193A1, “CYCLIC COMPOUND HAVING SELECTIVE KRAS INHIBITORY EFFECT ON HRAS AND NRAS” (CHUGAI SEIYAKU KABUSHIKI KAISHA, priority 2022, published 2025).
Where a SMILES comes first, the peptide text is derived from it. Bridges are numbered along the chain shown (N, C = ends). [ ]: non-standard residue; d: D form. hPhe(3-Cl-4-CF3) = N[C@@H](CCc1ccc(C(F)(F)F)c(Cl)c1)C(=O)O; NPrPhe(4-CF3) = CCCN[C@@H](Cc1ccc(C(F)(F)F)cc1)C(=O)O; NMeGly(cPent) = CN[C@H](C(=O)O)C1CCCC1; NMeL = CN[C@@H](CC(C)C)C(=O)O; Ac4c = NC1(C(=O)O)CCC1; NEtG = CCNCC(=O)O; Sar = CNCC(=O)O

Experiments:
[1] = target: GDP-bound HRAS wild-type protein (Homo sapiens, UniProt P01112); assay: Binding to HRAS by surface plasmon resonance (SPR), Single Cycle Kinetics
Chain of GDP-bound HRAS wild-type protein (P01112 whole entry): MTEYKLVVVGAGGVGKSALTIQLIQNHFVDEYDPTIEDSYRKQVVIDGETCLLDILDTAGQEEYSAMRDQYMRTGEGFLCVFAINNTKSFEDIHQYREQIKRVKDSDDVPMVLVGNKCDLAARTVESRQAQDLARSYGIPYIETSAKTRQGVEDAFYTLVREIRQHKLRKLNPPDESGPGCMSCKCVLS

[2] = target: GDP-bound NRAS wild-type protein (Homo sapiens, UniProt P01111); assay: Binding to NRAS by surface plasmon resonance (SPR), Single Cycle Kinetics
Chain of GDP-bound NRAS wild-type protein (P01111 whole entry): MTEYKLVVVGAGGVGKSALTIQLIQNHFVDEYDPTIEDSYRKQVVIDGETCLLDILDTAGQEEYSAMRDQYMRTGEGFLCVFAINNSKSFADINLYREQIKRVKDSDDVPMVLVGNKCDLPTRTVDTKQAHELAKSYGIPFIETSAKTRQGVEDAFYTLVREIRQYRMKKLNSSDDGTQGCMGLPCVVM

[3] = KD ratio, GDP-bound HRAS wild-type vs GDP-bound KRAS wild-type, SPR
[4] = KD ratio, GDP-bound NRAS wild-type vs GDP-bound KRAS wild-type, SPR
[5] = KD ratio HRAS/KRAS, SPR, GDP-bound wild-type proteins
[6] = KD ratio NRAS/KRAS, SPR, GDP-bound wild-type proteins

In the case of CCCN(C)C(=O)[C@@H]1CC(=O)N(C)[C@@H](C2CCC2)C(=O)N[C@@H]([C@@H](C)CC)C(=O)N(C)CC(=O)N(C)[C@H]2C/C=C\CCN(C2=O)[C@@H](Cc2ccc(C(F)(F)F)cc2)C(=O)N(C)CC(=O)N[C@@H](CCc2ccc(C(F)(F)F)c(OC)c2)C(=O)N2C[C@H](OCC)C[C@H]2C(=O)NC2(CCC2)C(=O)N(C)[C@@H](C2CCCC2)C(=O)N1C [PP2023], the “HRAS/KRAS (ratio of KD value for HRAS to KD value for KRAS)” value [1, 3] is reported as “B (a compound having 3 or more and less than 10 is denoted as B)” and the “NRAS/KRAS (ratio of KD value for NRAS to KD value for KRAS)” value [2, 4] is reported as “A (a compound having 10 or more and less than 20 is denoted as A)”.

For CCCN1C(=O)CN(C)C(=O)CN(CC)C(=O)[C@H]([C@@H](C)CC)NC(=O)[C@H](CC(C)C)N(C)C(=O)C[C@@H](C(=O)N(C)C)NC(=O)[C@H](C2CCCC2)N(C)C(=O)C2(CCC2)NC(=O)[C@@H]2CCCN2C(=O)[C@H](CCc2ccc(C(F)(F)F)c(Cl)c2)NC(=O)CN(C)C(=O)[C@@H]1Cc1ccc(C(F)(F)F)cc1 [PP0368] ([NMeL]I[NEtG][Sar][NPrPhe(4-CF3)][Sar][hPhe(3-Cl-4-CF3)]P[Ac4c][NMeGly(cPent)]D-NMe2; lactam N-11), the “HRAS/KRAS (ratio of KD for GDP-bound HRAS wild-type to KD for KRAS)” value ([1]; KD ratio HRAS/KRAS, SPR) was “B (a compound having 3 or more and less than 10 is denoted as B)” and the “NRAS/KRAS (ratio of KD for GDP-bound NRAS wild-type to KD for KRAS)” value ([2]; KD ratio NRAS/KRAS, SPR) was “B (a compound having 3 or more and less than 10 is denoted as B)”.

With CCC[C@H]1C(=O)N[C@@H]([C@@H](C)CC)C(=O)N(C2CC2)CC(=O)N(C)[C@H]2C/C=C\CCN(C2=O)[C@@H](Cc2ccc(C(F)(F)F)cc2)C(=O)N(C)CC(=O)N[C@@H](CCc2cc(F)c(C(F)(F)F)c(F)c2)C(=O)N2C[C@H](OCC)C[C@H]2C(=O)N(C)C2(CCC2)C(=O)N(C)[C@@H](C2CCCC2)C(=O)N(C)[C@H](C(=O)N2CCCCC2)CC(=O)N1C [PP3110] the “HRAS/KRAS (ratio of KD value with respect to GDP-bound HRAS wild-type protein to KD value with respect to KRAS)” value [1, 5] was “A (a compound having 10 or more and less than 20 is denoted as A)” and the “NRAS/KRAS (ratio of KD value with respect to GDP-bound NRAS wild-type protein to KD value with respect to KRAS)” value [2, 6] was “A (a compound having 10 or more and less than 20 is denoted as A)”.

For C=CCCC[C@H]1C(=O)N[C@@H]([C@@H](C)CC)C(=O)N(C)CC(=O)N(C)[C@H]2CCCCCN(C2=O)[C@@H](Cc2ccc(C(F)(F)F)cc2)C(=O)N(C)CC(=O)N[C@@H](CCc2cc(F)c(C(F)(F)F)c(F)c2)C(=O)N2C[C@H](OCC)C[C@H]2C(=O)N[C@](C)(CC=C)C(=O)N(C)[C@@H](C2CCCC2)C(=O)N(C)[C@H](C(=O)N2CCOCC2)CC(=O)N1C [PP0880], the “HRAS/KRAS (ratio of KD value with respect to HRAS to KD value with respect to KRAS)” value [1, 3] was “B (a compound having 3 or more and less than 10 is denoted as B)” and the “NRAS/KRAS (ratio of KD value with respect to NRAS to KD value with respect to KRAS)” value [2, 4] was “B (a compound having 3 or more and less than 10 is denoted as B)”.

With CCC[C@H]1C(=O)N[C@@H](C2CCCC2)C(=O)N(C)CC(=O)N(C)[C@H]2C/C=C\CCN(C2=O)[C@@H](Cc2ccc(C(F)(F)F)cc2)C(=O)N(C)CC(=O)N[C@@H](CCc2ccc(C(F)(F)F)c(Cl)c2)C(=O)N2CC3(CC3)C[C@H]2C(=O)NC2(CC(C)(C)C2)C(=O)N(C)[C@@H](CC(C)(C)C)C(=O)N(C)[C@H](C(=O)N(C)C)CC(=O)N1C [PP2981] the “HRAS/KRAS (ratio of KD value with respect to GDP-bound HRAS wild-type protein to KD value with respect to KRAS)” value [1, 5] was “A (a compound having 10 or more and less than 20 is denoted as A)” and the “NRAS/KRAS (ratio of KD value with respect to GDP-bound NRAS wild-type protein to KD value with respect to KRAS)” value [2, 6] was “AA (a compound having 20 or more is denoted as AA)”.

For CCO[C@@H]1C[C@H]2C(=O)NC3(CC(C)(C)C3)C(=O)N(C)[C@@H](C3CCCC3)C(=O)N(C)[C@H](C(=O)N(C)CC)CC(=O)N(C)[C@H]3CCCC/C=C/c4ccc(cc4)C[C@@H](C(=O)N(C)CC(=O)N[C@@H](CCc4ccc(Cl)c(Cl)c4)C(=O)N2C1)N1CC/C=C\C[C@@H](C1=O)N(C)C(=O)CN(C)C(=O)[C@H]([C@@H](C)CC)NC3=O [PP2592], the “HRAS/KRAS (ratio of KD value with respect to GDP-bound HRAS wild-type protein to KD value with respect to KRAS)” value ([1]; KD ratio HRAS/KRAS, class symbols) was “A (a compound having 10 or more and less than 20 is denoted as A)” and the “NRAS/KRAS (ratio of KD value with respect to GDP-bound NRAS wild-type protein to KD value with respect to KRAS)” value ([2]; KD ratio NRAS/KRAS, class symbols) was “A (a compound having 10 or more and less than 20 is denoted as A)”.

With CCCN(C)C(=O)[C@@H]1CC(=O)N(C)[C@@H](C(C)C)C(=O)N[C@@H]([C@@H](C)CC)C(=O)N(C)CC(=O)N(C)[C@H]2C/C=C\CCN(C2=O)[C@@H](Cc2ccc(C(F)(F)F)cc2)C(=O)N(C)CC(=O)N[C@@H](CCc2cc(F)c(C(F)(F)F)c(F)c2)C(=O)N2C[C@@H](C)C[C@H]2C(=O)NC2(CCC2)C(=O)N(C)[C@@H](C2CCCC2)C(=O)N1C [PP2079] the “HRAS/KRAS (ratio of KD value with respect to HRAS to KD value with respect to KRAS)” value ([1]; SPR, GDP-bound HRAS wild-type vs GDP-bound KRAS wild-type) was “A (a compound having 10 or more and less than 20 is denoted as A)” and the “NRAS/KRAS (ratio of KD value with respect to NRAS to KD value with respect to KRAS)” value ([2]; SPR, GDP-bound NRAS wild-type vs GDP-bound KRAS wild-type) was “A (a compound having 10 or more and less than 20 is denoted as A)”.
